The nature of test [1]: Inhibition of SARS-CoV PLpro expressed in Escherichia coli. On the set-up: species or system Severe acute respiratory syndrome-related coronavirus.
In test [2] the target is T1, Replicase polyprotein 1ab (Severe acute respiratory syndrome coronavirus 2, UniProt P0DTD1). The test can be described thus: Inhibition of SARS-CoV-2 PLpro expressed in Escherichia coli.
Test [3] concerns the target T1, Replicase polyprotein 1ab. The test can be described thus: Inhibition of SARS-CoV-2 MPro.
The target of test [4] is T1, Replicase polyprotein 1ab. Put plainly: Inhibition of recombinant SARS-CoV-2 MPro incubated for 10 mins in presence of fluorogenic substrate.
A short description of test [5]: Inhibition of recombinant MERS-CoV MPro. On the set-up: species or system Middle East respiratory syndrome-related coronavirus.
A short description of test [6]: Inhibition of recombinant SARS-CoV MPro. The arrangement: species or system Severe acute respiratory syndrome-related coronavirus.

Molecules are shown by their SMILES. pIC50: −log10 of the molar value. Some results are limits rather than exact numbers.

By pIC50 is commonly meant the IC50 on a negative log10 scale, so that one unit is a factor of ten. In turn, `COc1ccc(CNC(=O)C2CCN(Cc3cccc4ccccc34)CC2)cc1` showed a pIC50 in test [1] of 4.23.
On to `CC(=O)Nc1ccc(C)c(C(=O)N[C@@H](C)c2cccc3ccccc23)c1`, for which the pIC50 in test [2] is 5.30; in test [1], 5.59.
Take `O=C[C@@H](C[C@@H]1CCNC1=O)NC(=O)[C@@H](Cc1cccc(F)c1)NC(=O)c1cc2ccccc2[nH]1`: the pIC50 in test [3] and in test [4] was 7.40 in each case.
`Cc1ccc(N)cc1C(=O)N[C@@H](C)c1cccc2ccccc12`: in test [1], the pIC50 is 6.22.
For `CC(C)(C)OC(=O)Nc1cccn([C@H](CC2CC2)C(=O)N[C@H](C[C@@H]2CCNC2=O)C(=O)C(=O)NCc2ccccc2)c1=O`, the pIC50 in test [5] was 6.24; in test [6], 6.05.
Consider `Cc1ccccc1C(=O)NC(C)c1ccc2ccccc2c1` (stereo unspecified), for which the pIC50 in test [1] is 4.70.
Turning to `CN(C)C(=O)COC(=O)Cc1ccc(OC(=O)c2ccc(NC(=N)N)cc2)cc1` [CAMOSTAT], the negative-log IC50 (pIC50) in test [3] was less than 4.70.
The same measure, in the same setting: the result for `Cc1cccc(C)c1OCC(=O)N[C@@H](Cc1ccccc1)[C@@H](O)C[C@H](Cc1ccccc1)NC(=O)[C@H](C(C)C)N1CCCNC1=O` [LOPINAVIR] reads less than 4.70.

For the origin of these results see ChEMBL document CHEMBL5096141, “Protease targeted COVID-19 drug discovery and its challenges: Insight into viral main protease (Mpro) and papain-like protease (PLpro) inhibitors” (Bioorg Med Chem, 2021).
